Here are results for 1 compound from article PMC9331678 (Molecules, 2022).

For series [1] the following is noted: cited from earlier work.
For a further series, the system named is plasma albumin. The settings on record: cited from earlier work.
Series [2] is described as follows: 6 h benchtop (early preanalytical) stability in whole blood and in plasma. Type of series: in vitro ADME, human. The settings on record: ambient temperature (25 °C), up to 6 h. As for the experimental part:
Six independent plasma samples were processed. The reference solutions were 140 µL acetonitrile-water 4:1 (v/v) mixtures spiked as described above. The mixtures and the reference solutions were subsequently diluted with 90 µL water. Internal standard-corrected matrix factors were calculated as the peak area ratios of the analytes and the internal standards in prepared plasma versus those in a neat solution. In the stability studies, the recoveries of IBR and DIB were calculated as the ratio of the concentrations measured after incubation and those measured at the beginning of the study.
The preanalytical stability of IBR and DIB was evaluated by adding 20 µL methanol solutions containing 500 ng/mL IBR and DIB to two 1.0 mL aliquots of blood freshly drawn into phlebotomy tubes containing K3-EDTA. Three samples, 3 mL each, were taken from three healthy volunteers (manuscript authors G.B.K., I.V. and Z.K.). One of the fractions was centrifuged at 3000 rpm and 10 °C for 10 min immediately after spiking the analytes, and plasma was separated. Both spiked whole blood and the separated plasma were kept at ambient temperature for 6 h. […] Fifty microliters was drawn from the supernatant of the whole blood sample as well as from the plasma, and was processed as described in Section 2.2.

The conditions of series [3]: plasma kept at ambient temperature for 24 h; ref 24 (Huynh et al.); cited from earlier work.
For series [4] the following is noted: cited from earlier work. The source holds these as a separate data set.

Consider `C=CC(=O)N1CCC[C@@H](n2nc(-c3ccc(Oc4ccccc4)cc3)c3c(N)ncnc32)C1` [Ibrutinib, 1-[(3R)-3-[4-Amino-3-(4-phenoxyphenyl)-1H-pyrazolo[3,4-d]pyrimidin-1-yl]-1-piperidinyl]-2-propen-1-one], for which the solubility in water result in series [1] was “poor”. Moreover, in the series with plasma albumin, the “affinity to plasma albumin” value is on record as over 95%. The recovery at 9.8 ng/mL in series [2] (human, plasma (separated from spiked K3-EDTA whole blood), plasma, all analyses) is at least 85%. Besides, in series [2] (whole blood), the “cases with recoveries lower than 85% (of fifteen analyses)” value was “two”. The recoveries in series [3] is 46.7–72.9%. In addition, the oral bioavailability entry in series [4] was “low”.
